Test results as given in ChEMBL document CHEMBL4359919, “Discovery and synthesis of 3- and 21-substituted fusidic acid derivatives as reversal agents of P-glycoprotein-mediated multidrug resistance” (Eur J Med Chem, 2019).
Active and inactive are the calls of the source. No cut-off for these calls is given here.

Key:
[1] = biological target: T1, ATP-dependent translocase ABCB1 (Homo sapiens, UniProt P08183); assay: Reversal of P-gp-mediated multidrug resistance in human KBV cells assessed as potentiation of paclitaxel-induced cytotoxicity by measuring cell survival at 5 uM after 72 hrs by MTT assay (reference value: 100.58 +/- 7.78%); type: cell-based
T1 sequence (P08183 whole entry): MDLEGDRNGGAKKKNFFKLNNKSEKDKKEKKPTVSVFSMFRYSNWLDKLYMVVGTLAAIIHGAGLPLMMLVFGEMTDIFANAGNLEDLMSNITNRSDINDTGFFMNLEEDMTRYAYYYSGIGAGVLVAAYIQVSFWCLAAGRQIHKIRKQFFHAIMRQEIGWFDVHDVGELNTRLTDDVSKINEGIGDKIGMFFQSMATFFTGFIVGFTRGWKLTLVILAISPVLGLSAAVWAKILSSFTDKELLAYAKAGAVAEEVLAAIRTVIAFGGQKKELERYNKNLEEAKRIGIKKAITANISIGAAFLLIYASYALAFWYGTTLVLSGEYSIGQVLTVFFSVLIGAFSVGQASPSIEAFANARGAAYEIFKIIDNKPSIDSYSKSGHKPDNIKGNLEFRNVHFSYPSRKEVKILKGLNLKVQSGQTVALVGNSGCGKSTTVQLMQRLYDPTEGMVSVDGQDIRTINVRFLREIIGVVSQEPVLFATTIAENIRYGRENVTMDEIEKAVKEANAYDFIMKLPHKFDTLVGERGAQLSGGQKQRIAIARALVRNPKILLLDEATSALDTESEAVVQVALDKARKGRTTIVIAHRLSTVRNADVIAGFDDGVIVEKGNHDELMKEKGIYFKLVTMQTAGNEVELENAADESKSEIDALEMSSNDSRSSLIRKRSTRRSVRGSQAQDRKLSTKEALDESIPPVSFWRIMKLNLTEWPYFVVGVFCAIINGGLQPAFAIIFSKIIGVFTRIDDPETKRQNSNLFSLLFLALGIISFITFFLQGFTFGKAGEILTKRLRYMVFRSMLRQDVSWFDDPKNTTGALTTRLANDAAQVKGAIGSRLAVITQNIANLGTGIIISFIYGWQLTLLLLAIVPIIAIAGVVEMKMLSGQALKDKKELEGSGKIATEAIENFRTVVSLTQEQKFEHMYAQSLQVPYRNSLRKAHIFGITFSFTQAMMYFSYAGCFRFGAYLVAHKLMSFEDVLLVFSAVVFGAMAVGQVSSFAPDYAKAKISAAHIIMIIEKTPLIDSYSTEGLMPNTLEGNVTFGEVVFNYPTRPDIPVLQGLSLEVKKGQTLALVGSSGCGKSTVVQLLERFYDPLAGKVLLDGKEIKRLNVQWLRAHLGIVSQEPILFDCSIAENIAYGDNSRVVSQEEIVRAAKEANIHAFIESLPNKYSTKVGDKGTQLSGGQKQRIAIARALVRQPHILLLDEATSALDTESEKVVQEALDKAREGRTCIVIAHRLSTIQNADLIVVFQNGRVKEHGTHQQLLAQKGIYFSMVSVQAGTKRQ

[2] = Cytotoxicity against human KBV cells assessed as cell survival at 5 uM after 72 hrs by MTT assay relative to control; type: cell-based; details: read-out: Survival
[3] = biological target: T1, ATP-dependent translocase ABCB1; assay: Reversal of P-gp-mediated multidrug resistance in human KBV cells assessed as potentiation of paclitaxel-induced cell cycle arrest by measuring accumulation at G2/M phase at 5 to 10 uM after 24 hrs by RNase/propidium iodide staining based flow cytometry
[4] = biological target: T1, ATP-dependent translocase ABCB1; assay: Reversal of P-gp-mediated multidrug resistance in human KBV cells assessed as potentiation of paclitaxel-induced apoptosis after 24 hrs by RNase/propidium iodide staining based flow cytometry; type: cell-based
[5] = biological target: T1, ATP-dependent translocase ABCB1; assay: Inhibition of P-gp-mediated Rh-123 efflux in human KBV cells assessed as Rh-123 accumulation at 10 uM preincubated for 2 hrs followed by Rh-123 addition measured after 30 mins by flow cytometry; type: cell-based; details: 0.5 h
[6] = biological target: T1, ATP-dependent translocase ABCB1; assay: Inhibition of P-gp-mediated Flutax1 efflux in human KBV cells assessed as Flutax1 accumulation at 2 to 10 uM preincubated for 3 hrs followed by Flutax1 addition measured after 1 hr by flow cytometry; type: cell-based
Homo sapiens = species on record: Homo sapiens; assay: Downregulation of P-gp protein expression in human KBV cells at 5 to 10 uM after 24 hrs by western blot analysis; type: functional, cell-based
[7] = biological target: T1, ATP-dependent translocase ABCB1; assay: Stimulation of P-gp ATPase activity (unknown origin) assessed as increase in ATP consumption at 0.5 to 1 mM preincubated for 5 mins followed by Mg-ATP addition by P-gp-Glo luminescence assay

Row | Structure (SMILES) | Survival [1] [%] | viability at 72 h, 5 µM [2] [%] | further results
1 | CC(=O)O[C@H]1C[C@@]2(C)[C@@H](C[C@@H](O)[C@H]3[C@@]4(C)CC[C@@H](OC(=O)CCC(=O)Nc5ccc(N)cc5)[C@@H](C)[C@@H]4CC[C@@]32C)/C1=C(\CCC=C(C)C)C(=O)OCc1ccccc1 | 22.26 | 136 | 
2 | CC(=O)O[C@H]1C[C@@]2(C)[C@@H](C[C@@H](O)[C@H]3[C@@]4(C)CC[C@@H](O)[C@@H](C)[C@@H]4CC[C@@]32C)/C1=C(\CCC=C(C)C)C(=O)Oc1ccc(CCO[N+](=O)[O-])cc1 | 45.82 | 83.7 | 
3 | CC(=O)O[C@H]1C[C@@]2(C)[C@@H](C[C@@H](O)[C@H]3[C@@]4(C)CC[C@@H](OC(=O)c5ccccc5C(=O)N5CCOCC5)[C@@H](C)[C@@H]4CC[C@@]32C)/C1=C(\CCC=C(C)C)C(=O)OCc1ccccc1 | 37.96 | 76 | 
4 | CC(=O)O[C@H]1C[C@@]2(C)[C@@H](C[C@@H](O)[C@H]3[C@@]4(C)CC[C@@H](OC(=O)c5ccccc5C(=O)Nc5cccc(N)c5)[C@@H](C)[C@@H]4CC[C@@]32C)/C1=C(\CCC=C(C)C)C(=O)OCc1ccccc1 | 29.28 | 95.8 | 
5 | CC(=O)O[C@H]1C[C@@]2(C)[C@@H](C[C@@H](O)[C@H]3[C@@]4(C)CC[C@@H](OC(=O)c5ccccc5C(=O)OCCc5ccc(OCCO[N+](=O)[O-])cc5)[C@@H](C)[C@@H]4CC[C@@]32C)/C1=C(\CCC=C(C)C)C(=O)OCc1ccccc1 | 90.45 | 85.9 | 
6 | CC(=O)O[C@H]1C[C@@]2(C)[C@@H](C[C@@H](O)[C@H]3[C@@]4(C)CC[C@@H](OC(=O)CCC(=O)N5CCCCC5)[C@@H](C)[C@@H]4CC[C@@]32C)/C1=C(\CCC=C(C)C)C(=O)OCc1ccccc1 | 35.31 | 122 | 
7 | CC(=O)O[C@H]1C[C@@]2(C)[C@@H](CC(=O)[C@H]3[C@@]4(C)CC[C@@H](OC(=O)CCCCO[N+](=O)[O-])[C@@H](C)[C@@H]4CC[C@@]32C)/C1=C(\CCC=C(C)C)C(=O)OCc1ccccc1 | 20.75 | 112 | 
8 | CC(=O)O[C@H]1C[C@@]2(C)[C@@H](C[C@@H](O)[C@H]3[C@@]4(C)CC[C@@H](OC(=O)CCC(=O)N5CCN(C)CC5)[C@@H](C)[C@@H]4CC[C@@]32C)/C1=C(\CCC=C(C)C)C(=O)OCc1ccccc1 | 33.67 | 30.1 | 
9 | CC(=O)O[C@H]1C[C@@]2(C)[C@@H](C[C@@H](O)[C@H]3[C@@]4(C)CC[C@@H](O)[C@@H](C)[C@@H]4CC[C@@]32C)/C1=C(\CCC=C(C)C)C(=O)OCc1ccccc1 | 18.6 | 92 | Activity [3]: Active; Activity [4]: Active; inhibition (INH) [5]: Active; inhibition (INH) [6]: Active; Activity (Homo sapiens): inactive; Activity [7]: Active
10 | CC(=O)O[C@H]1C[C@@]2(C)[C@@H](C[C@@H](O)[C@H]3[C@@]4(C)CC[C@@H](OC(=O)c5ccccc5C(=O)N5CCCCC5)[C@@H](C)[C@@H]4CC[C@@]32C)/C1=C(\CCC=C(C)C)C(=O)OCc1ccccc1 | 36.37 | 110 | 
11 | CC(=O)O[C@H]1C[C@@]2(C)[C@@H](C[C@@H](O)[C@H]3[C@@]4(C)CC[C@@H](OC(=O)CCC(=O)Nc5cccc(N)c5)[C@@H](C)[C@@H]4CC[C@@]32C)/C1=C(\CCC=C(C)C)C(=O)OCc1ccccc1 | 24.8 | 135 | 
12 | CC(=O)O[C@H]1C[C@@]2(C)[C@@H](C[C@@H](O)[C@H]3[C@@]4(C)CC[C@@H](OC(=O)c5ccccc5C(=O)Oc5ccc(CCO[N+](=O)[O-])cc5)[C@@H](C)[C@@H]4CC[C@@]32C)/C1=C(\CCC=C(C)C)C(=O)OCc1ccccc1 | 75.04 | 87.5 | 
13 | CC(=O)O[C@H]1C[C@@]2(C)[C@@H](C[C@@H](O)[C@H]3[C@@]4(C)CC[C@@H](OC(=O)CCC(=O)Oc5ccc(CCO[N+](=O)[O-])cc5)[C@@H](C)[C@@H]4CC[C@@]32C)/C1=C(\CCC=C(C)C)C(=O)OCc1ccccc1 | 99.95 | 114 | 
14 | CC(=O)O[C@H]1C[C@@]2(C)[C@@H](C[C@@H](O)[C@H]3[C@@]4(C)CC[C@@H](OC(=O)c5ccccc5C(=O)Nc5ccc(N)cc5)[C@@H](C)[C@@H]4CC[C@@]32C)/C1=C(\CCC=C(C)C)C(=O)OCc1ccccc1 | 23.58 | 118 | 
15 | CC(=O)O[C@H]1C[C@@]2(C)[C@@H](CC(=O)[C@H]3[C@@]4(C)CC[C@@H](OC(=O)CCCCCO[N+](=O)[O-])[C@@H](C)[C@@H]4CC[C@@]32C)/C1=C(\CCC=C(C)C)C(=O)OCc1ccccc1 | 62.17 | 115 | 
16 | CC(=O)O[C@H]1C[C@@]2(C)[C@@H](C[C@@H](O)[C@H]3[C@@]4(C)CC[C@@H](OC(=O)CCC(=O)N5CCOCC5)[C@@H](C)[C@@H]4CC[C@@]32C)/C1=C(\CCC=C(C)C)C(=O)OCc1ccccc1 | 31.93 | 20.5 | 
17 | CC(=O)O[C@H]1C[C@@]2(C)[C@@H](C[C@@H](O)[C@H]3[C@@]4(C)CC[C@@H](O)[C@@H](C)[C@@H]4CC[C@@]32C)/C1=C(\CCC=C(C)C)C(=O)O [FUSIDIC ACID] | 87.77 | 84.7 | 
18 | CC(=O)O[C@H]1C[C@@]2(C)[C@@H](C[C@@H](O)[C@H]3[C@@]4(C)CC[C@@H](OC(=O)CCC(=O)OCCc5ccc(OCCO[N+](=O)[O-])cc5)[C@@H](C)[C@@H]4CC[C@@]32C)/C1=C(\CCC=C(C)C)C(=O)OCc1ccccc1 | 101.31 | 110 | 
19 | CC(=O)O[C@H]1C[C@@]2(C)[C@@H](CC(=O)[C@H]3[C@@]4(C)CCC(=O)[C@@H](C)[C@@H]4CC[C@@]32C)/C1=C(\CCC=C(C)C)C(=O)OCc1ccccc1 | 27.6 | 96.6 | 
20 | CC(=O)O[C@H]1C[C@@]2(C)[C@@H](C[C@@H](O)[C@H]3[C@@]4(C)CC[C@@H](OC(=O)CCCCCO[N+](=O)[O-])[C@@H](C)[C@@H]4CC[C@@]32C)/C1=C(\CCC=C(C)C)C(=O)OCc1ccccc1 | 20.79 | 94.1 | 
21 | CCN1CCN(C(=O)CCC(=O)O[C@@H]2CC[C@@]3(C)[C@@H](CC[C@@]4(C)[C@H]3[C@H](O)C[C@H]3/C(=C(\CCC=C(C)C)C(=O)OCc5ccccc5)[C@@H](OC(C)=O)C[C@@]34C)[C@@H]2C)CC1 | 34.43 | 99.8 | 
22 | COc1ccc(CCN(C)CCCC(C#N)(c2ccc(OC)c(OC)c2)C(C)C)cc1OC (stereo not given) [VERAPAMIL] | 23.05 |  | 
23 | CC(=O)O[C@H]1C[C@@]2(C)[C@@H](C[C@@H](O)[C@H]3[C@@]4(C)CC[C@@H](OC(=O)CCCCO[N+](=O)[O-])[C@@H](C)[C@@H]4CC[C@@]32C)/C1=C(\CCC=C(C)C)C(=O)OCc1ccccc1 | 96.92 | 107 | 
24 | CC(=O)O[C@H]1C[C@@]2(C)[C@@H](C[C@@H](O)[C@H]3[C@@]4(C)CC[C@@H](OC(=O)c5ccccc5C(=O)N5CCN(C)CC5)[C@@H](C)[C@@H]4CC[C@@]32C)/C1=C(\CCC=C(C)C)C(=O)OCc1ccccc1 | 69.5 | 100 | 
25 | CCN1CCN(C(=O)c2ccccc2C(=O)O[C@@H]2CC[C@@]3(C)[C@@H](CC[C@@]4(C)[C@H]3[C@H](O)C[C@H]3/C(=C(\CCC=C(C)C)C(=O)OCc5ccccc5)[C@@H](OC(C)=O)C[C@@]34C)[C@@H]2C)CC1 | 20.76 | 27.3 | 
